# Measurements reported in paper PMC10901819, “Structure-function analysis of the cyclic β-1,2-glucan synthase from Agrobacterium tumefaciens” (Nature Communications, 2024).
# Molecular target: T1, Cgs (CgsWT) (Agrobacterium fabrum, UniProt Q7CWD9)
# T1 construct: gene chvB; full length, C-terminal 3xFlag from chromosomal insertion; purified from native A. tumefaciens C58 membranes in DDM; nanodiscs (cryo-EM) or proteoliposomes (activity); subpopulation of dimers
# Experiment: cryo-EM structure
# Type: binding
# Conditions: GT active site; sample incubated with 5 mM UDP-Glc, 1.5 mM MgCl2, pH 7.5, 22 °C; putative UDP density
smiles,measurement,value
O=c1ccn([C@@H]2O[C@H](COP(=O)(O)OP(=O)(O)O)[C@@H](O)[C@H]2O)c(=O)[nH]1 [UDP],cryo-EM structure,The CgsWT model contains an additional density docked at the active site
